Values joined by “and” are separate entries in the source; they are usually repeats but may differ in a detail not shown here. Identical values can stand only once. Inconclusive results and toxic doses are left out.
Tested on: P388 leukemia ip, CD2F1 mice, survival T/C
Assay: NCI In Vivo Anticancer Drug Screen. Data for tumor model P388 Leukemia (intraperitoneal) in CD2F1 (CDF1) mice
Details: endpoint: median survival time, higher = longer survival
Method in brief: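 Mice carrying the transplanted tumor received test compound or vehicle. Survival was recorded in each group, and the value is the treated-group measurement divided by that of the vehicle-treated control group.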

[1] = dose: 12.5 mg/kg/injection, schedule: Q01DX001 (ip), vehicle: Klucel (hydroxypropylcellulose) (HPC)
[2] = dose: 25.0 mg/kg/injection, schedule: Q01DX001 (ip), vehicle: Klucel (hydroxypropylcellulose) (HPC)
[3] = dose: 25.0 mg/kg/injection, schedule: Q01DX009 (ip), vehicle: saline
[4] = dose: 50.0 mg/kg/injection, schedule: Q01DX009 (ip), vehicle: saline
[5] = dose: 50.0 mg/kg/injection, schedule: Q01DX005 (ip), vehicle: saline with Tween-80
[6] = dose: 100.0 mg/kg/injection, schedule: Q01DX005 (ip), vehicle: saline with Tween-80
[7] = dose: 200.0 mg/kg/injection, schedule: Q01DX005 (ip), vehicle: saline with Tween-80
[8] = dose: 50.0 mg/kg/injection, schedule: Q01DX009 (ip), vehicle: Klucel (hydroxypropylcellulose) (HPC)
[9] = dose: 100.0 mg/kg/injection, schedule: Q01DX009 (ip), vehicle: Klucel (hydroxypropylcellulose) (HPC)
[10] = dose: 200.0 mg/kg/injection, schedule: Q01DX009 (ip), vehicle: Klucel (hydroxypropylcellulose) (HPC)
[11] = dose: 50.0 mg/kg/injection, schedule: Q01DX009 (ip), vehicle: saline with Tween-80
[12] = dose: 100.0 mg/kg/injection, schedule: Q01DX009 (ip), vehicle: saline with Tween-80
[13] = dose: 200.0 mg/kg/injection, schedule: Q01DX009 (ip), vehicle: saline with Tween-80

## CC12CCC(N3CCCC3)CC1=CCC1C2CCC2(C)C1CCCN2CCO (stereo unspecified)
[1]
  T/C: 99 % of control
[2]
  T/C: 99 % of control
dose: 50.0 mg/kg/injection, schedule: Q01DX001 (ip), vehicle: Klucel (hydroxypropylcellulose) (HPC)
  T/C: 103 % of control

## CCOC(=O)CCCCCOCOC
dose: 100.0 mg/kg/injection, schedule: Q01DX001 (ip), vehicle: saline with Tween-80
  T/C: 106 % of control
dose: 200.0 mg/kg/injection, schedule: Q01DX001 (ip), vehicle: saline with Tween-80
  T/C: 98 % of control
dose: 400.0 mg/kg/injection, schedule: Q01DX001 (ip), vehicle: saline with Tween-80
  T/C: 106 % of control

## CC1=NN(c2ccccc2)C(=O)/C1=C(\[O-])c1ccccc1.CC1=NN(c2ccccc2)C(=O)/C1=C(\[O-])c1ccccc1.CC1=NN(c2ccccc2)C(=O)/C1=C(\[O-])c1ccccc1.[Fe+3]
dose: 15.0 mg/kg/injection, schedule: Q01DX005 (ip), vehicle: saline with Tween-80
  T/C: 96 % of control and 97 % of control
dose: 30.0 mg/kg/injection, schedule: Q01DX005 (ip), vehicle: saline with Tween-80
  T/C: 101 % of control and 90 % of control
dose: 120.0 mg/kg/injection, schedule: Q01DX005 (ip), vehicle: saline with Tween-80
  T/C: 104 % of control and 87 % of control

## CCN=C(CC(=O)C12CC3CC(CC(C3)C1)C2)N(CC)CC
dose: 12.5 mg/kg/injection, schedule: Q01DX009 (ip), vehicle: saline
  T/C: 109 % of control
[3]
  T/C: 112 % of control
[4]
  T/C: 100 % of control and 103 % of control

## COC(=O)c1cc(C2OC3OC(C)(C)OC3C2OC)nn1-c1ccc([N+](=O)[O-])cc1 (stereo unspecified)
[5]
  T/C: 109 % of control
[6]
  T/C: 100 % of control
[7]
  T/C: 104 % of control

## O=C(O)c1cc(-c2c(Cl)cccc2Cl)nc2cc3ccccc3cc12
[8]
  T/C: 111 % of control
[9]
  T/C: 106 % of control
[10]
  T/C: 106 % of control

## NP(=O)(Oc1ccccc1)Oc1ccccc1
dose: 6.23 mg/kg/injection, schedule: Q01DX009 (ip), vehicle: saline with Tween-80
  T/C: 95 % of control
dose: 12.5 mg/kg/injection, schedule: Q01DX009 (ip), vehicle: saline with Tween-80
  T/C: 100 % of control
dose: 25.0 mg/kg/injection, schedule: Q01DX009 (ip), vehicle: saline with Tween-80
  T/C: 95 % of control

## CCOc1c(N=Nc2ccc(O)cc2)c(C)nn1C(=S)S
dose: 60.0 mg/kg/injection, schedule: Q01DX005 (ip), vehicle: Klucel + Tween-80
  T/C: 115 % of control
dose: 120.0 mg/kg/injection, schedule: Q01DX005 (ip), vehicle: Klucel + Tween-80
  T/C: 115 % of control
dose: 240.0 mg/kg/injection, schedule: Q01DX005 (ip), vehicle: Klucel + Tween-80
  T/C: 118 % of control

## Cc1ccc(C(=O)Nc2ccc(N(CCCl)CCCl)cc2)cc1
dose: 6.25 mg/kg/injection, schedule: Q01DX001 (ip), vehicle: Klucel (hydroxypropylcellulose) (HPC)
  T/C: 102 % of control
[1]
  T/C: 108 % of control
[2]
  T/C: 110 % of control

## Cc1cc2c(cc1C)NC1C(=O)C(c3cccc([N+](=O)[O-])c3)OC1=N2 (stereo unspecified)
dose: 50.0 mg/kg/injection, schedule: Q01DX005 (ip), vehicle: Klucel (hydroxypropylcellulose) (HPC)
  T/C: 111 % of control
dose: 100.0 mg/kg/injection, schedule: Q01DX005 (ip), vehicle: Klucel (hydroxypropylcellulose) (HPC)
  T/C: 90 % of control
dose: 200.0 mg/kg/injection, schedule: Q01DX005 (ip), vehicle: Klucel (hydroxypropylcellulose) (HPC)
  T/C: 87 % of control

## CN(C)c1ccc(Cc2ccc(N(C)C)nc2)cn1
[5]
  T/C: 109 % of control
[6]
  T/C: 110 % of control

## NC(N)=O.NC(N)=O.NC(N)=O.NC(N)=O.NC(N)=O.NC(N)=O.[Fe+3].[O-][Cl+3]([O-])([O-])O
[11]
  T/C: 96 % of control
[12]
  T/C: 91 % of control
[13]
  T/C: 102 % of control

## C1=CC2C(c3cccc4ccccc34)O[C@H]2O1 (stereo partly specified)
dose: 7.5 mg/kg/injection, schedule: Q01DX005 (ip), vehicle: Klucel (hydroxypropylcellulose) (HPC)
  T/C: 97 % of control
dose: 15.0 mg/kg/injection, schedule: Q01DX005 (ip), vehicle: Klucel (hydroxypropylcellulose) (HPC)
  T/C: 97 % of control
dose: 30.0 mg/kg/injection, schedule: Q01DX005 (ip), vehicle: Klucel (hydroxypropylcellulose) (HPC)
  T/C: 97 % of control

## CCCCCC(Cn1ccnc1)c1ccc(Cl)cc1Cl (stereo unspecified)
dose: 100.0 mg/kg/injection, schedule: Q04DX003 (ip), vehicle: saline with Tween-80
  T/C: 99 % of control
dose: 200.0 mg/kg/injection, schedule: Q04DX003 (ip), vehicle: saline with Tween-80
  T/C: 94 % of control
dose: 400.0 mg/kg/injection, schedule: Q04DX003 (ip), vehicle: saline with Tween-80
  T/C: 89 % of control

## CC1CN(/C=C2\Cc3c(Cl)cccc3C2=O)CCN1c1ccc(Cl)cc1 (stereo unspecified)
dose: 100.0 mg/kg/injection, schedule: Q04DX002 (ip), vehicle: saline
  T/C: 100 % of control
dose: 200.0 mg/kg/injection, schedule: Q04DX002 (ip), vehicle: saline
  T/C: 102 % of control
dose: 400.0 mg/kg/injection, schedule: Q04DX002 (ip), vehicle: saline
  T/C: 100 % of control

## O=C(O)C(CBr)CBr
dose: 25.0 mg/kg/injection, schedule: Q01DX009 (ip), vehicle: water
  T/C: 107 % of control
dose: 50.0 mg/kg/injection, schedule: Q01DX009 (ip), vehicle: water
  T/C: 106 % of control
dose: 100.0 mg/kg/injection, schedule: Q01DX009 (ip), vehicle: water
  T/C: 100 % of control

## CCCCCCCCCCCCN1CCS(=O)(=O)CC1
dose: 25.0 mg/kg/injection, schedule: Q01DX009 (ip), vehicle: Klucel (hydroxypropylcellulose) (HPC)
  T/C: 112 % of control
[8]
  T/C: 95 % of control
[9]
  T/C: 118 % of control
[10]
  T/C: 101 % of control

## CC(=O)c1nn(-c2ccccc2)c(=O)cc1C
[5]
  T/C: 100 % of control
[6]
  T/C: 98 % of control
[7]
  T/C: 100 % of control

## COc1cc(OC)c(C(C)=O)c(OC)c1OC
[11]
  T/C: 106 % of control
[12]
  T/C: 113 % of control
[13]
  T/C: 106 % of control

## COC(=O)c1ccnc(C(=O)OC)c1
dose: 50.0 mg/kg/injection, schedule: Q01DX001 (ip), vehicle: saline
  T/C: 86 % of control
dose: 100.0 mg/kg/injection, schedule: Q01DX001 (ip), vehicle: saline
  T/C: 95 % of control
dose: 200.0 mg/kg/injection, schedule: Q01DX001 (ip), vehicle: saline
  T/C: 100 % of control

## CC(C)(C)c1ccc(Sc2cccc3c2C(=O)c2c(Sc4cccc(F)c4)cccc2C3=O)cc1
dose: 100.0 mg/kg/injection, schedule: Q04DX002 (ip), vehicle: saline with Tween-80
  T/C: 99 % of control
dose: 200.0 mg/kg/injection, schedule: Q04DX002 (ip), vehicle: saline with Tween-80
  T/C: 89 % of control
dose: 400.0 mg/kg/injection, schedule: Q04DX002 (ip), vehicle: saline with Tween-80
  T/C: 95 % of control

## COc1cccc2c1C(=O)c1c(O)c3c(c(O)c1C2=O)C[C@@](O)(CCO)C[C@@H]3OC1CC(N)C(O)C(C)O1 (stereo partly specified)
dose: 0.39 mg/kg/injection, schedule: Q01DX009 (ip), vehicle: water
  T/C: 151 % of control
dose: 0.78 mg/kg/injection, schedule: Q01DX009 (ip), vehicle: water
  T/C: 158 % of control and 164 % of control
dose: 1.2 mg/kg/injection, schedule: Q04DX003 (ip), vehicle: water
  T/C: 119 % of control
dose: 1.56 mg/kg/injection, schedule: Q01DX009 (ip), vehicle: water
  T/C: 153 % of control and 158 % of control
dose: 2.4 mg/kg/injection, schedule: Q04DX003 (ip), vehicle: water
  T/C: 106 % of control and 112 % of control
dose: 3.13 mg/kg/injection, schedule: Q01DX009 (ip), vehicle: water
  T/C: 163 % of control and 164 % of control
dose: 4.7 mg/kg/injection, schedule: Q04DX003 (ip), vehicle: water
  T/C: 120 % of control
dose: 6.25 mg/kg/injection, schedule: Q01DX009 (ip), vehicle: water
  T/C: 153 % of control
dose: 9.4 mg/kg/injection, schedule: Q04DX003 (ip), vehicle: water
  T/C: 154 % of control
dose: 18.8 mg/kg/injection, schedule: Q04DX003 (ip), vehicle: water
  T/C: 158 % of control
dose: 75.0 mg/kg/injection, schedule: Q04DX003 (ip), vehicle: water
  T/C: 97 % of control

## CC(=O)Oc1cc2c(=O)oc3c(OC(C)=O)c(OC(C)=O)c(OC(C)=O)c4c(=O)oc(c1OC(C)=O)c2c34
[3]
  T/C: 101 % of control
[4]
  T/C: 86 % of control
[9]
  T/C: 86 % of control
[10]
  T/C: 86 % of control
dose: 200.0 mg/kg/injection, schedule: Q01DX009 (ip), vehicle: saline
  T/C: 88 % of control
dose: 400.0 mg/kg/injection, schedule: Q01DX009 (ip), vehicle: saline
  T/C: 94 % of control

## CC(C)CC(=O)C(c1ccccc1)C(CC(C)C)C(=O)C1C(c2ccccc2)CC(=O)C(C(C)C)C1c1ccccc1 (stereo unspecified)
[5]
  T/C: 101 % of control
[6]
  T/C: 92 % of control
[7]
  T/C: 87 % of control

## CC1CC(C)(C)OC(C2CC=CCC2C)O1 (stereo unspecified)
[5]
  T/C: 97 % of control
[6]
  T/C: 100 % of control
[7]
  T/C: 109 % of control

Source: PubChem BioAssay AID330 (DTP/NCI, 2004)
